Legend:
[1] = system: mouse primary cortical neurons; test: Autophagy in primary mouse cortical neurons (LC3-II blot, GFP-LC3 puncta); type: cell-based, E17 embryonic ICR mice; conditions: 24 hours
Experimental: Primary neuron culture. The E17 embryonic pup brains were dissected and cortices were placed in a Petri dish containing ice cold EBSS, with meninges carefully removed. Tissues were digested in 5 ml of digestion solution (EBSS containing 0.5 mM EDTA (E6758, Sigma), 0.5 mg/ml Papain (3120, Worthington Biochem) and 4 mg/ml L-Cysteine (C7880, Sigma)) at 37° C. for 15 minutes. The tissue was sucked out in 1 ml of digestion solution and mixed with 3 ml of digestion inhibition solution (EBSS containing 5 mg/ml BSA (A2153, Sigma), 5 mg/ml Trypsin inhibitor (T9253, Sigma) and 10 μg/ml DNase (DN25, Sigma)). The mixed tissue solution was thoroughly mixed to dissociate the cells and then transferred to a 50 ml tube through a 70 μm filter. The cells were collected by centrifugation and re-suspended in seeding medium (DMEM containing 10% FBS and 10% horse serum). […]
To further confirm the pro-autophagic effect of Cory B on primary neurons, mouse primary cortical neurons isolated from E17 embryonic ICR mice are used in this study. […] Neurons are fixed in 4% paraformaldehyde and analyzed under a confocal microscope. GFP-LC3 puncta number in each GFP positive neuron is counted and at least 20 neurons in each group is counted. […]

[2] = system: phosphorylated mTOR and P70S6K; test: Western blot of mTOR pathway and other autophagy pathways in N2a cells; type: cell-based, mouse
Experimental: FIG. 7: Western blot analysis of expression level of phosphorylated mTOR (p-mTOR) or its substrate P70S6K (p-P70S6K) in N2a cells with treatment of 25 μM Cory B or 0.2 μM rapamycin for 6 hours (FIG. 7A); western blot analysis of Beclin 1 expression in N2a cells with non-target or Beclin 1-specific siRNA treatments followed by Cory B (FIG. 7B)
To elucidate the molecular mechanism of Cory B action, the classic autophagy controlling pathway, the mTOR pathway is first examined.

Inducible PC12 cells = test: HMGB1 translocation and autophagy in alpha-synuclein inducible PC12 cells; type: cell-based, rat; conditions: α-syn overexpression induced by Dox, 24 h
Experimental: Inducible PC12 cells are treated with […] Dox for 24 h in the presence of Corynoxine B (Cory B), rapamycin (Rap), wortmannin (Wort) or chloroquine (CQ). The expressions of induced HA-α-syn, endogenous LC3-II and Beclin-1 are determined by Western blotting (FIG. 10A). The expression of HMGB1 in the cytosolic and nuclear fractions are determined by Western blotting (FIG. 10B). b-actin and Lamin B1 are used as relative loading controls. Data are presented as the mean±SD from three independent experiments. ^#p<0.05 vs. un-induced control; *p<0.05 vs. Dox treatment; **p<0.05 vs. Dox+Cory B treatment.

N2a Swedish APP cells = test: APP reduction in N2a Swedish APP cells (western blot); type: cell-based, mouse; conditions: different concentrations, with or without CQ and 3MA
Experimental: N2a Swedish APP cells are incubated with different concentration of Cory and Cory B in the presence or absence of CQ and 3MA. […] Tg2567 APP mice, 3 months old JNPL P301 Tau mice and WT mice intraperitoneally are administrated with 20 mg/kg/d CoryB.

N2a cells = test: Tandem fluorescent mRFP-GFP-LC3 (Tf-LC3) autophagosome maturation in N2a cells; type: cell-based, mouse; conditions: 25 μM, 24 hours
Excerpt: Therefore, red-only puncta indicates the normal maturation of the autolysosomes. In contrast, co-localization of GFP and RFP puncta indicates impaired fusion between autophagosomes and lysosomes or disruption of lysosome function. Here, this system is utilized and establishes a pattern of GFP and mRFP fluorescence changes in N2a cells after Cory B treatment. Cells are fixed in 4% paraformaldehyde and analyzed under a confocal microscope. […] However, the number of GFP puncta is much lower as compared to mRFP puncta, indicating efficient autophagosome-lysosome maturation and degradation. In cells treated with CQ, there is similar accumulation of GFP and mRFP puncta due to lysosome inhibition. In cells treated with both CQ and Cory B, the number of GFP and mRFP puncta are even more than in the CQ-alone group, but GFP and mRFP puncta numbers are very similar (FIG. 2E, F). The observations further confirm that enhancement of GFP- and RFP-LC3-II puncta expression by Cory B are achieved via autophagy induction flux in neuronal cells rather than inhibiting lysosomal degradation of LC3-II. Results were presented as means±SEM of one representative experiment from three independent repeats (**p<0.01 compare the difference between GFP and RFP puncta in each group, two-way ANOVA for multiple comparison and Bonferroni test as post hoc test).

Question: Which LC3-II level ([1]; 0-50 μM) does the source give for `CC[C@@H]1CN2CC[C@]3(C(=O)Nc4ccccc43)C2C[C@@H]1C(=COC)C(=O)OC` (some centres unmarked) [Cory B, Corynoxine B] here?
Answer: dose-dependent increase of LC3-II

Question: And the “GFP puncta in neurons transfected with GFP-LC3 construct” value ([1]; 50 μM)?
Answer: induces massive formation of GFP puncta

Question: What about the “phosphorylated mTOR and p-P70S6K levels” value ([2]; 25 μM Cory B or 0.2 μM rapamycin, 6 hours) of the same compound?
Answer: neither phosphorylated mTOR nor its substrate P70S6K are affected

Question: And the “AKT, AMPK, MEK/ERK, JNK, ER stress and calcium signaling pathways” value ([2]; data not shown)?
Answer: none of the above mentioned pathways are altered

Question: What about the “cytosolic translocation of HMGB1 and autophagy” value (Inducible PC12 cells) of the same compound?
Answer: restored the deficient cytosolic translocation of HMGB1 and autophagy

Question: And the “full length and CTF APP” value (N2a Swedish APP cells)?
Answer: dose-dependently reduce both full length and CTF APP

Question: What about the “GFP and mRFP puncta formation (Tf-LC3)” value (N2a cells) of the same compound?
Answer: induces massive GFP and mRFP puncta formation

Question: And the “number of GFP puncta compared to mRFP puncta” value (N2a cells)?
Answer: much lower
